Data set [1] is described as follows: J774-Dual cytotoxicity. As to conditions: mouse, J774-Dual cells, read-out: J774 cytotox CC50. It counts as cell-based, mouse. The method, boiled down:
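Orthogonal cross-species screen in mouse J774-Dual cells using 8-point dose-response format. Cytotoxicity measured in-plate by CellTiter-Glo luminescence, giving CC50 alongside EC50 and ISRE:NFκB ratios.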

Data set [2] has as its system IRF-Lucia luciferase reporter (ISRE) in THP1-Dual cells. Kind of data set: THP1-Dual IRF-Lucia luciferase reporter assay (ISRE activation). It counts as cell-based, human. As to conditions: Homo sapiens, THP1-Dual, read-out: THP1 IRF EC50. Summed up:
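THP1-Dual cells were differentiated with 5 ng/mL PMA for 48 h at 37° C, washed, then treated with compounds at 10 μM final for 24 h; LPS at 313 ng/mL served as control. ISRE-driven Lucia luciferase in supernatant was read by luminescence.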
(A reporter such as luciferase makes a cellular process visible.)

Data set [3] deals with NF-κB-SEAP reporter in THP1-Dual cells. Kind of data set: THP1-Dual NF-κB-SEAP reporter counterscreen. The settings on record: Homo sapiens, THP1-Dual, read-out: THP1 NFkB EC50. Format: cell-based, human. The protocol: THP1 Dual (InvivoGen) cell suspensions were cultured in RPMI 1640 (Hyclone, Logan, Utah) supplemented with 10% fetal bovine serum (Hyclone), 100 U/mL Normocin (Invivogen), and 50 U/mL PenStrep (Gibco, Dublin, Ireland) between a density of 7·10^5-2·10^6 cells/mL. Every other passage, media was supplemented with 5 U/mL Blasticidin and 100 U/mL Zeocin to maintain the expression constructs. White, flat-bottom 384-well plates (Greiner, Kremsmunster, Austria, 781080) were seeded with 2.5·10^4 cells/well in a total of 50 μL media containing 5 ng/mL phorbolmyristic acid (PMA) using a Matrix WellMate (Thermo Scientific) dispenser. After 48 hours of incubation at 37° C., media was removed using a BioTek ELx405 CW plate washer set to aspirate and wash each well three times with 65 μL 1×PBS. Plates were reloaded with 50 μL media without PMA and treatments added. Lipopolysaccharide in dimethylsulfoxide (DMSO) was transferred to control wells using a HP D300 microdispenser to a final concentration of 313 ng/mL. Compounds from chemical library plates were copied using a Sciclone (Caliper LifeSciences) mounted with a 384-pin transfer tool to obtain a final concentration of 10 μM. After incubation with treatments for 24 hours, 10 μL of supernatant media from each well was transferred into a white, flat-bottom 384-well plate for luminescence readout and a black-walled, clear flat-bottom 384-well plate for absorbance readout.
Specifically, to enable screening of novel chemical entities (NCEs) in a larger screening effort, a robust high-throughput cell-based assay system for primary hit identification of ISRE activators based on the above-mentioned target validation was desired. Human ISRE activity was verified using a THP-1 monocyte line containing the NF-κB-SEAP and IRF-Lucia luciferase dual reporter (THP1-Dual; Invivogen) that features two reporter genes, SEAP (secreted embryonic alkaline phosphatase) and Lucia luciferase, thereby enabling the simultaneous study of the NF-κB and IRF signalling pathways. The Lucia luciferase reporter is under the control of an ISG54 (interferon-stimulated gene) minimal promoter in conjunction with five IFN-stimulated response elements. The SEAP gene is driven by an IFN-β minimal promoter fused to five copies of the NF-κB consensus transcriptional response element and three copies of the c-Rel binding site. Both reporter proteins are readily measurable in the cell culture supernatant when using QUANTI-LUC™ and QUANTI-Blue SEAP detection reagents.
Using the experimental design and data analysis outlined above, optimized assay conditions were obtained. The responsiveness of the human THP-1 Dual cell line was evaluated in an array of assay conditions to obtain sensitive and reproducible results for the activation of IRF and NF-κB reporters. An optimal plating density and differentiation protocol for these cells was established in a 384-well format. All transfer steps are fully automated using high throughput robotic equipment. Briefly, cells are seeded in differentiation medium using a Matrix WellMate fitted with the WellMate Stacker (Thermo Scientific) and incubated at 37° C. with 5% CO2 for 48 h. Following differentiation, cells are washed using a BioTek ELx405 Select CW plate washer and growth medium added with the Matrix WellMate. Programmed control treatments are added to wells using a D300 digital dispenser fitted with T8+ dispense heads (Hewlett Packard) designed to dispense nanoliter quantities of material. Compounds from library plates are added using a pin tool fitted to a Sciclone ALH 3000 Workstation (Caliper Life Sciences) programmed with Maestro v4.4. After treatment, plates are returned to incubators for 24 hours. To measure reporter expression, supernatant is collected using the Sciclone and dispensed into 2 plates: 1) a white 384-well assay plate for Lucia luminescence measurements and 2) a clear-bottom black 384-well assay plate for SEAP absorbance measurements. […]

Data set [4] in a line: THP1-Dual cytotoxicity (Cell Titer Glo, ATP). Format: cell-based, human. As to conditions: human, THP1-Dual cells, read-out: Thp1 cytotox CC50. The method, boiled down:
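Human THP1-Dual cells were treated across an 8-point dose-response range. Cytotoxicity was measured in-plate by CellTiter-Glo luminescence, which quantifies ATP as a marker of metabolically active cells, and CC50 was taken as the 50% cytotoxic concentration.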
(ATP-based viability assays read luminescence as a measure of living cells.)

Where [5] appears, read: Human Reporter Cell Line, 8-point dose response.

Structures are written as SMILES. Where two headings read alike, the source gives them in different places.

By CC50 is commonly meant the concentration giving 50% cytotoxicity. What is called EC50 is the midpoint of the concentration-response curve.

As to `O=C(Nc1ccc(N2CCN(C(=O)c3cccs3)CC2)cc1)c1ccc(-c2ccccc2)cc1` [NA-19], the CC50 in data set [1] (Mouse Reporter Cell Line) is greater than 25 µM; in data set [4] (Human Reporter Cell Line) it was 8.49 µM. Also, the values for the EC50 in data set [2] (setting [5]) and in data set [3] (setting [5]) were 1.02 µM and 1.47 µM, respectively.
Take `O=C(Nc1ccc(N2CCN(C(=O)c3cccs3)CC2)cc1)c1ccc(OCc2ccc(OC(F)(F)F)cc2)cc1` [NA-34]: the CC50 in data set [1] (Mouse Reporter Cell Line) and in data set [4] (Human Reporter Cell Line) was greater than 25 µM each time. For the same molecule, the EC50 in data set [2] (setting [5]) was determined as 4.42 µM; in data set [3] (setting [5]), 6.38 µM.
As to `CCOc1cccc(COc2ccc(C(=O)Nc3ccc(N4CCN(C(=O)c5cccs5)CC4)cc3)cn2)c1` [NA-71], the CC50 in data set [1] (Mouse Reporter Cell Line) and in data set [4] (Human Reporter Cell Line) was greater than 10 µM throughout. The EC50 in data set [2] (setting [5]) is 3.33 µM; in data set [3] (setting [5]), 6.57 µM.
`COC(=O)Cc1ccc(NC(=O)c2ccc(NC(=O)c3ccco3)cc2)cc1` [NC-3]: the CC50 in data set [1] (Mouse Reporter Cell Line) and in data set [4] (Human Reporter Cell Line) was greater than 25 µM each time. The results for the EC50 in data set [2] (setting [5]) and in data set [3] (setting [5]) were 4.13 µM and roughly 6.13 µM, respectively.
Take `Cc1c(C(=O)Nc2ccc3oc(-c4cccnc4)nc3c2)cccc1[N+](=O)[O-]` [ND-42]: the CC50 in data set [1] (Mouse Reporter Cell Line J774) and in data set [4] (Human Reporter Cell Line THP1) was greater than 25 µM in each case. In addition, the EC50 was roughly 0.00225 µM in data set [2] (Human Reporter Cell Line THP1) and roughly 15.6 µM in data set [3] (Human Reporter Cell Line THP1).
Consider `Cc1ccc(-c2nc3ccccc3s2)cc1NC(=O)c1cc(I)ccc1Cl` [ND-62], for which the CC50 in data set [1] (Mouse Reporter Cell Line J774) and in data set [4] (Human Reporter Cell Line THP1) was greater than 25 µM each time. In addition, the EC50 in data set [3] (Human Reporter Cell Line THP1) is roughly 9.34 µM.
As for `Cc1ccc(C(=O)Nc2ccc(O)c(-c3nc4ccccc4s3)c2)cc1[N+](=O)[O-]` [ND-63], the CC50 was greater than 25 µM in data set [1] (Mouse Reporter Cell Line J774) and 27.4 µM in data set [4] (Human Reporter Cell Line THP1). In data set [3] (Human Reporter Cell Line THP1), the EC50 was roughly 3.2 µM.
`COc1ccc(C(=O)Nc2ccc(O)c(-c3nc4ccccc4s3)c2)cc1[N+](=O)[O-]` [ND-65]: the CC50 in data set [1] (Mouse Reporter Cell Line J774) and in data set [4] (Human Reporter Cell Line THP1) was greater than 25 µM each time. Moreover, the EC50 in data set [2] (Human Reporter Cell Line THP1) was found to be 5.39 µM; in data set [3] (Human Reporter Cell Line THP1), 12 µM.
As to `COc1ccc(-c2nc3ccccc3s2)cc1NC(=O)c1ccc([N+](=O)[O-])cc1Cl` [ND-67], the CC50 in data set [1] (Mouse Reporter Cell Line J774) was greater than 25 µM; in data set [4] (Human Reporter Cell Line THP1), 8.87 µM. Moreover, the EC50 in data set [2] (Human Reporter Cell Line THP1) is 0.401 µM; in data set [3] (Human Reporter Cell Line THP1) it was roughly 12.3 µM.
Turning to `COc1ccc(C(=O)Nc2cc(-c3nc4ccccc4s3)ccc2C)cc1Br` [ND-68], the CC50 in data set [1] (Mouse Reporter Cell Line J774) and in data set [4] (Human Reporter Cell Line THP1) was greater than 25 µM in each case. Also, the EC50 in data set [3] (Human Reporter Cell Line THP1) was roughly 9.75 µM.
Turning to `Cc1ccc(C(=O)Nc2cc(-c3nc4ccccc4s3)ccc2C)cc1Cl` [ND-70], the CC50 in data set [1] (Mouse Reporter Cell Line J774) was greater than 25 µM; in data set [4] (Human Reporter Cell Line THP1), 17.4 µM. Moreover, the EC50 is 4.76 µM in data set [2] (Human Reporter Cell Line THP1) and roughly 4.33 µM in data set [3] (Human Reporter Cell Line THP1).
The like results for `Cc1cc2nc(-c3ccc(C)c(NC(=O)c4ccc([N+](=O)[O-])cc4)c3)oc2cc1C` [ND-71] were, in that order, greater than 25 µM, greater than 25 µM, 8.49 µM and 6.94 µM.
Regarding `Oc1ccc(-c2nc3ccc(O)cc3o2)cc1` [ND-74], the CC50 in data set [1] (Mouse Reporter Cell Line J774) and in data set [4] (Human Reporter Cell Line THP1) was greater than 25 µM each time. Also, the EC50 in data set [3] (Human Reporter Cell Line THP1) was 32.5 µM.
Take `Cc1ccc(-c2nc3ccccc3s2)cc1NC(=O)c1ccc(C(F)(F)F)c([N+](=O)[O-])c1` [ND-79]: the CC50 in data set [1] (Mouse Reporter Cell Line J774) and in data set [4] (Human Reporter Cell Line THP1) was greater than 25 µM throughout. For the same molecule, the EC50 in data set [3] (Human Reporter Cell Line THP1) is roughly 11.3 µM.
Consider `COc1ccc2oc(-c3ccc(C)c(NC(=O)c4ccc(OC)c([N+](=O)[O-])c4)c3)nc2c1` [ND-86], for which the CC50 in data set [1] (Mouse Reporter Cell Line J774) and in data set [4] (Human Reporter Cell Line THP1) was greater than 25 µM in each case. Further, in data set [3] (Human Reporter Cell Line THP1), the EC50 was roughly 3.85 µM.
For the molecule `COc1ccc(C(=O)Nc2cc(-c3nc4ccccc4s3)ccc2Cl)cc1[N+](=O)[O-]` [ND-89], the CC50 in data set [1] (Mouse Reporter Cell Line J774) and in data set [4] (Human Reporter Cell Line THP1) was greater than 25 µM throughout. Further, the EC50 in data set [2] (Human Reporter Cell Line THP1) was roughly 0.496 µM; in data set [3] (Human Reporter Cell Line THP1) it was 10.6 µM.
On to `COc1ccc(C(=O)Nc2cc(-c3nc4cc(OCCCN5CCCC5)ccc4o3)ccc2C)cc1[N+](=O)[O-]` [ND-92], for which the CC50 in data set [1] (Mouse Reporter Cell Line J774) and in data set [4] (Human Reporter Cell Line THP1) was greater than 25 µM in each case. The EC50 in data set [3] (Human Reporter Cell Line THP1) is roughly 2.33 µM.
On to `COc1c(Cl)cc(C(=O)Nc2cc(-c3nc4cc(Cl)ccc4o3)ccc2C)cc1Cl` [ND-101], for which the CC50 in data set [1] (Mouse Reporter Cell Line J774) and in data set [4] (Human Reporter Cell Line THP1) was greater than 25 µM throughout. In addition, in data set [3] (Human Reporter Cell Line THP1), the EC50 was roughly 3.75 µM.
Take `Cc1cc2nc(-c3ccc(C)c(NC(=O)c4ccc([N+](=O)[O-])cc4Cl)c3)oc2cc1C` [ND-102]: the EC50 in data set [2] (Human Reporter Cell Line THP1) was found to be 24.7 µM; in data set [3] (Human Reporter Cell Line THP1), 57.9 µM.
In the case of `Cc1cc2nc(-c3ccc(C)c(NC(=O)c4ccc(OCc5ccccc5)cc4)c3)oc2cc1C` [ND-105], the CC50 in data set [1] (Mouse Reporter Cell Line J774) and in data set [4] (Human Reporter Cell Line THP1) was greater than 10 µM throughout. Further, the EC50 in data set [3] (Human Reporter Cell Line THP1) is 2.19 µM.

The values above are taken from patent publication US20220395500A1, “SMALL MOLECULE ACTIVATORS OF INTERFERON REGULATORY FACTOR 3 AND METHODS OF USE THEREOF” (Neuralexo, Inc., priority 2020, published 2022).
